From patent publication US5244795A, “Processes for preparing cholesterol lowering compounds” (Merck & Co., Inc., priority 1992, dated 1993)
Values after ≈ are worked out from the molar mass of the structure shown.

Key:
Aspergillus niger = assay: FISP disc diffusion assay; type: cell-based; design: key to zone quality qualifier: F: clear zone, fuzzy edges; S: slightly hazy zone (some growth observed throughout zone); H: hazy zone (considerable growth observed throughout zone); V: very hazy zone (zone of inhibition is barely discernable); R: zone displays a ring of resistant growth; no qualifier: clear zone throughout, sharp edges; details: 250 μg/ml in CH2Cl2
From the text: (§1) The FISP assay employs disc diffusion susceptibility testing methods to generate a spectrum of activity against a panel of representative yeasts, filamentous fungi and bacteria.
The filamentous fungi used in the assay were Penicillium sp. Aspergillus niger, Trichoderma sp., Phoma sp., Trichoderma lignorum, Fusarium oxysporum, Ustilago maydis, Ceratocystis ulmi, Alternaria soloni, Verticillium serrae, Botrytis allii, Scopulariopsis communis, Cephalosporium sp., Cercospora beticola, Rhizomucor miehei, Aspergillus flavus and Aspergillus fumigatus.
(§2) For carrying out the assay, seeded assay plates are prepared in the following manner according to the type of assay strain.
Inocula for filamentous fungi are prepared by scraping the surface of stock plates maintained on potato dextrose agar with a moistened sterile dacron swab. The spores and mycelia are then suspended in 10 milliliters of sterile potato dextrose broth and adjusted to 65 percent transmission at 660 nm. […]
(§3) Following incubation, the inhibition zones are measured and recorded. […]
(§4) FISP data is reported as the diameter (in mm.) of the zone of inhibition of growth in agar diffusion assays. The zone is determined by measuring growth that differs from the background lawn. […]

Streptomyces sp. = assay: FISP disc diffusion assay; type: cell-based; design: key: F: clear zone, fuzzy edges; S: slightly hazy zone (some growth observed throughout zone); H: hazy zone (considerable growth observed throughout zone); V: very hazy zone (zone of inhibition is barely discernable); R: zone displays a ring of resistant growth; no qualifier: clear zone throughout, sharp edges; details: 250 μg/ml in CH2Cl2
Procedure: as §1
The bacteria employed in the assay are Streptomyces sp., Acholeplasma laidlawii and Bacillus subtilis.
as §2
(§5) Inocula for yeasts and bacterial strains are prepared from overnight broth cultures then diluted into potato dextrose agar to a final concentration of either 40 percent or 70 percent transmission at 660 nm.
The seeded agar media thus prepared are dispensed into petri dishes for assays (11 ml per dish).
The samples to be tested for production of antifungal agent are applied to 6.2 mm filter paper discs (25 μl/disc) and air dried at 24° C. When the sample to be tested is crude broth, it may be centrifuged prior to application. The discs bearing the material to be tested are then applied employing sterile conditions to the seeded assay plates. The assay plates are then incubated at either 28° C. or 37° C. for 24 hours. […]
as §3, §4

Candida guilliermondii [1] = assay: FISP disc diffusion assay; type: cell-based; details: Meyerozyma guilliermondii; 250 μg/ml in CH2Cl2; read-out: diameter of the zone of inhibition of growth
From the text: as §1
(§6) The yeasts employed in the assay are Saccharomyces cerevisiae, Candida albicans, Candida tropicalis, Candida rugosa, Brettanomyces bruxellensis, Torulospora hansenii, Candida guilliermondi, Candida pseudotropicalis, Torulopsis glabrata, Cryptococcus albidus, Cryptococcus laurentii and Kluyveromyces fragilis.
as §2, §5
(§7) Assay plates for the yeasts and filamentous fungi are prepared by diluting the inoculum into appropriate molten agar medium, cooled to 45° C. to obtain a final concentration of 4 percent.
(§8) The seeded agar media thus prepared are dispensed into petri dishes for assays (11 ml per dish). […]
as §3, §4

Torulopsis glabrata = assay: FISP disc diffusion assay; type: cell-based; details: Nakaseomyces glabratus; 250 μg/ml in CH2Cl2; read-out: diameter of the zone of inhibition of growth
From the text: as §1, §6, §2, §5, §7, §8, §3, §4

Aspergillus fumigatus = assay: Microdilution broth assay; type: cell-based; details: strain MF 4839, 35° C., 48-72 hours, read-out: MIC (minimum inhibitory concentration)
Procedure: (§9) The broad spectrum antifungal activity of the present compounds was further determined by broth dilution methods. The compounds are particularly active towards filamentous fungi and yeasts including Candida albicans and Crypt. neoformans. The sensitivity of filamentous fungi and yeasts was determined using inhibitor dilution assays in microtiter format. A standardized spore suspension for testing the filamentous fungi was prepared by inoculating sterile distilled water with spores such that 1.5-7.5×10^3 colony forming units were added per well. The microtiter wells were filled with 75 μl of yeast nitrogen base containing 1% Dextrose medium (YNB/D) containing compound. Fifty μl of inoculated YNB/D medium was then added to the wells.
(§10) The sensitivity of yeasts was determined by inoculating sterile distilled water with aliquots of a 4-hour yeast culture grown in Yeast Morphology (YM) media at 35° C. and diluting in YNB/D to yield a final concentration of 1.5-7.5×10^3 colony forming units/well. Seventy-five μl of inoculated media was added per well. To test the sensitivity of yeast, compound was solubilized in 10 percent aqueous DMSO at 2.56 mg/ml. The compound was diluted serially in YNB/D from 128 to 0.06 μg/ml. The wells were filled with 75 μl of drug containing media. […] Representative of the antifungal activity are the minimum inhibitory concentration and minimum fungicidal concentration data shown below in Table II: […]

Candida albicans = assay: Microdilution broth assay; type: cell-based; details: 35° C., 24 to 48 hours
Procedure: as §9, §10

Candida guilliermondii [2] = assay: Microdilution broth assay; type: cell-based; details: Meyerozyma guilliermondii; strain MY 1019; 35° C., 24 to 48 hours; read-out: MIC (minimum inhibitory concentration)
Procedure: as §9, §10

Candida parapsilosis = assay: Microdilution broth assay; type: cell-based; details: Lodderomyces parapsilosis; strain MY 1010; 35° C., 24 to 48 hours; read-out: MIC (minimum inhibitory concentration)
Procedure: as §9, §10

Candida tropicalis = assay: Microdilution broth assay; type: cell-based; details: strain MY 1012, 35° C., 24 to 48 hours, read-out: MIC (minimum inhibitory concentration)
Procedure: as §9, §10

Cryptococcus neoformans = assay: Microdilution broth assay; type: cell-based; details: strain MY 1051, 35° C., 24 to 48 hours, read-out: MIC (minimum inhibitory concentration)
Procedure: as §9, §10

Saccharomyces cerevisiae = assay: Microdilution broth assay; type: cell-based; details: strain MY 1976, 35° C., 24 to 48 hours, read-out: MIC (minimum inhibitory concentration)
Procedure: as §9, §10

T. mentagrophytes = assay: Microdilution broth assay; type: cell-based; details: Trichophyton mentagrophytes; strain MF 4864; 35° C., 48-72 hours; read-out: MIC (minimum inhibitory concentration)
Procedure: as §9, §10

Light stability = type: physicochemical

For `CC(/C=C/C=C(\C)C(O)C(C)C(=O)O[C@H]1C[C@H](C)C=C2C=C[C@@]3(C)O[C@@H](O)CC(=O)[C@]3(C)[C@H]21)=C\C=C\C(=O)O` (stereo partly shown) [Compound A], the zone quality qualifier (Aspergillus niger) was “H”, the zone of inhibition at 250 µg/mL (Aspergillus niger; Aspergillus niger, read-out: diameter of the zone of inhibition of growth) was 0 mm and the zone quality qualifier (Streptomyces sp.) was “V”. It also gave a zone of inhibition at 250 µg/mL (Candida guilliermondii [1]) of 0 mm, a zone of inhibition at 250 µg/mL (Torulopsis glabrata) of 0 mm and an MIC (Aspergillus fumigatus) of 64 µg/mL (≈ 118 µM). The MIC (Candida albicans; Candida albicans, strain MY 1055, read-out: MIC (minimum inhibitory concentration)) was at most 0.06 µg/mL, the “MIC (minimum inhibitory concentration)” value (Candida albicans; strain MY 1028) was at most 0.06 µg/mL and the MIC (Candida guilliermondii [2]) was over 128 µg/mL. For the same compound, the MIC (Candida parapsilosis) was 0.25 µg/mL (≈ 0.462 µM), the MIC (Candida tropicalis) was at most 0.06 µg/mL and the MIC (Cryptococcus neoformans) was 32 µg/mL (≈ 59.2 µM). The MIC (Saccharomyces cerevisiae) was over 128 µg/mL, the MIC (T. mentagrophytes) was 32 µg/mL (≈ 59.2 µM) and the stability (Light stability; isolated and worked with in the absence of light) was “stable when isolated and worked with in the absence of light”. For the same compound, the light sensitivity (Light stability; light) was “light sensitive”.
